{"source": "patent US10258027B2", "about": "“Autodissemination of an insect-growth regulator for insect management” (Rutgers, The State University of New Jersey, priority 2010, dated 2019)", "key": {"Ae. albopictus [1]": {"test_system": "Ae. albopictus", "conditions": "reported as low as; Gaugler 2012, Sihuincha 2005; cited from earlier work"}, "Ae. albopictus [2]": {"test_system": "Ae. albopictus", "assay": "Attachment and persistence of IGR formulations assay, biphasic ADS (residue analysis and larval bioassay)", "assay_type": "in vivo, Aedes albopictus", "source_text": "A biphasic autodissemination station (ADS) was developed to enhance attraction and contamination of gravid mosquitoes based on the previous version as described in the prior examples with modifications on the transfer chamber, which provided the attracted gravid mosquitoes a unidirectional path and biphasic formulations. The ADS consists of two main parts comprising of a water reservoir at the bottom (adapted from previous version), above which was a transfer chamber with a unidirectional cone inserted in the transfer chamber (FIGS. 12, A & B). The reservoir could hold 600 mL water, which contains dried shredded oak leaves and other materials producing attractants to the gravid mosquitoes. There were overflow protection holes located in the upper part of the reservoir as described in the previous examples. The transfer chamber was constructed with a cardboard mailing tube (101.5×155 mm; Office Depot, N.J. USA), a cotton mesh fabric (39 openings/cm^2) secured within the chamber base by hot glue, a vertical fabric band [43] (20 mm width) glued on top portion inside the transfer chamber and a horizontal flat ring (20 mm width) mounted on the top of the chamber (FIG. 12, B) to provide the base for powder band [46]. […] The spacer size was determined by preliminary study in which the gap size allowed maximum contamination of mosquitoes and minimum number of mosquitoes trapped. […]"}, "Ae. albopictus [3]": {"test_system": "Ae. albopictus", "assay": "Larvicidal LC50 of pyriproxyfen", "conditions": "unpublished data"}, "Ae. albopictus [4]": {"test_system": "Ae. albopictus", "assay": "Green house assay, biphasic ADS", "assay_type": "in vivo, Aedes albopictus", "procedure": "(§1) Larval bioassays for pyriproxyfen were conducted in adult emergence units (450 ml plastic Deli containers lid on) under the standard laboratory conditions as described above under the heading, Mosquito colony and maintenance. Each container received twenty early 3rd instar Ae. albopictus in 200 ml sample water. Larvae were inoculated gently using dropper before placing the lid on. Five slots (4 cm each) were cut into the lid with a clean blade for aeration. Larval food (30 mg yeast/L) was provided twice a week which was freshly prepared every time. An additional lab control group was setup in triplicate using […] water. The bioassays were conducted in the sequence of lab control and treatment to minimize the chance of contamination. Water lost due to the evaporation during bioassay was replenished. Adult emergence and pupal mortality were accessed after there was no live lava or pupa in the water. Incomplete emergence or adult with attached exuvia was recorded as pupal death. If lab control had mortality higher than 20% in larval or pupal stages, results were discarded and the experiment was repeated. The experiments were conducted under environmental conditions of 26-28° C., 60-75% RH and LD 16:8 h.\nGreen house with 2 bays (8×5×2.5 m each) was used for the semi-field assay. One ADS was positioned in the center of each bay and 6 Deli cups (450 mL, black painted from outside) containing 250 mL water each were setup as shown in FIG. 5 and 10% sugar solution was provided in a plastic cup with cotton wick. In each bay, 100 gravid mosquitoes (2 days post blood feeding) were released after the setup of ADS and oviposition containers. The containers were collected and sent for lab bioassay as described above after the 5 day experiment. […] The temperature of 22-30° C. and relative humidity of 45-70% were recorded during the experiment. […]\nEfficacy of pyriproxyfen was expressed as mean + standard error % of pupal mortality, which was corrected with control using Abbott's formula (Abbott W. S. (1925) J Econ Entomol; 18: 265-267). […]"}, "[5]": {"test_system": "3rd instar Ae. albopictus", "assay": "Cage experiment: transfer from females to larval habitat, larval bioassay", "assay_type": "in vivo, Aedes albopictus", "conditions": "2.2 m^3 cage, 50 gravid females, 5 days, all 36 ovicups; powder formulation on transfer mesh", "procedure": "In the cage experiment, an autodissemination station equipped with a pyriproxyfen-treated transfer mesh and 450 ml of oak leaf infusion water was centered in a cubic 2.2 m^3 cage. A 360 ml capacity plastic cup was placed in each cage corner 15 cm from the walls. Each of the four cups was filled with 200 ml tap water and oviposition paper strips aligned as described above. Controls used a station with an untreated transfer mesh. Fifty gravid females were then introduced into the cage. After five days, the test was terminated, oviposition papers and eggs discarded, and containers were removed and the water assessed for pyriproxyfen transfer by larval bioassay (see ‘insecticide bioassays’ below). There were three treatment and one control cage per experiment and the experiment was repeated three times, providing a total of 36 test and 12 control ovicups for bioassay. […]\n(§2) All insecticidal activity tests were conducted in adult emergence units—450 ml plastic containers with a screen-covered lid and 200 ml of water (water lost via evaporation was replaced before assay). […] At 2-day intervals, ground rat chow (30 mg/L) was provided as food, water lost due to evaporation was replenished, dead and emerged individuals were removed, and successful adult emergence was recorded. Incomplete emergence or adults with attached exuviae were recorded as dead."}, "gravid female": {"test_system": "gravid female", "assay": "Serial transfer study, biphasic ADS", "assay_type": "in vivo", "conditions": "right after it exited the ADS"}, "[6]": {"test_system": "3rd instar Ae. albopictus", "assay": "Room trial (31.1 m^3), single-phase station, larval bioassay", "assay_type": "in vivo, Aedes albopictus", "procedure": "In the room trial, the test arena was scaled-up to a larger area with dimensions of 2.1 (W)×2.6 (H)×5.7 (L) m (31.1 m^3). A station was placed in the center of the room and ovicups with oak infusion and ovistrips were positioned at each corner 30 cm from the walls. Fifty gravid females were introduced for a five day test. The ovistrips and eggs were discarded and the water from each container was tested for insecticidal activity by larval bioassay, with four additional untreated cups as controls. Environmental conditions of 26-28° C., 60-75% RH, and 16L:8D photoperiod. Inhibition of emergence in the cage and room trials was analyzed against their respective controls with a t-test (P≤0.05).\nAll insecticidal activity tests were conducted in adult emergence units—450 ml plastic containers with a screen-covered lid and 200 ml of water (water lost via evaporation was replaced before assay). Each container held twenty 3rd instar Ae. albopictus. Test containers were incubated at 26° C. and 16L:8D photoperiod. At 2-day intervals, ground rat chow (30 mg/L) was provided as food, water lost due to evaporation was replenished, dead and emerged individuals were removed, and successful adult emergence was recorded. Incomplete emergence or adults with attached exuviae were recorded as dead."}, "[7]": {"test_system": "3rd instar Ae. albopictus", "assay": "Venereal transfer from contaminated males to females, larval bioassay", "assay_type": "in vivo, Aedes albopictus", "conditions": "venereally acquired pyriproxyfen transferred to water-holding containers", "procedure": "This experiment determined whether contaminated mosquitoes could transfer pyriproxyfen to uncontaminated individuals via mating behaviors. To ensure virginity, pupae were individually transferred to 50 ml centrifuge tubes until emergence, and then caged by gender before testing 5-7 days post-emergence. Adult males were exposed to pyriproxyfen-treated filter paper (8×10 cm Whatman No. 1) lining a 50 ml test tube. The paper was coated with 1.5 ml of corn oil as a sticker, blotted to remove excess oil, and then dusted with our pyriproxyfen powder formulation at 0.26 mg/cm of a.i. After ten minutes of exposure, males were transferred from the tube by aspirator to mating containers (450 ml capacity, 7.5 cm depth) covered with mosquito-proof mesh, and allowed to mate with uncontaminated females in pairs. […]\nas §2"}, "gravid mosquitoes": {"test_system": "gravid mosquitoes", "assay": "Field studies, biphasic ADS", "assay_type": "in vivo"}, "container mosquitoes": {"test_system": "container mosquitoes", "conditions": "modified sticky trap dusted with manually grained 5% pyriproxyfen powder; cited from earlier work"}, "Ae. albopictus [8]": {"test_system": "Ae. albopictus", "assay": "Room assay (31 m^3), biphasic dual treatment ADS", "assay_type": "in vivo, Aedes albopictus", "procedure": "as §1\nThe test area was scaled up to a larger room (31 m^3) measuring 2.1 m in width, 5.7 m in length and 2.6 m in height. A station was placed in the center of the room and 10 Deli cups (450 mL, black painted from outside) containing 250 ml water were positioned 30 cm from the walls along each side of the room. Fifty gravid females were introduced for a 5-day test. The experiment was conducted under environmental conditions of 26-28° C., 60-75% RH and LD 16:8 h. The cups then were tested for pyriproxyfen activity using larval bioassay as described above. Ten additional untreated cups were included as controls. The pupal mortality in the room trials was analyzed against their respective controls with a t-test (P≤0.05)."}, "Ae. aegypti adults": {"test_system": "Ae. aegypti adults", "conditions": "pyriproxyfen dusted plastic containers, public cemetery; cited from earlier work"}, "Aedes aegypti": {"test_system": "Aedes aegypti", "conditions": "cited from earlier work"}}, "note": "Where “and” joins values, the source holds several entries; their conditions need not be identical. Identical values can stand only once. Like-named read-outs stand apart in the source and are kept apart here.", "data": [{"smiles": "CC(COc1ccc(Oc2ccccc2)cc1)Oc1ccccn1", "note": "(stereo not drawn) [pyriproxyfen, 2-[1-methyl-2-(4-phenoxyphenoxy)ethoxy] pyridine]", "values": [{"measurement": "LC50", "setting": "Ae. albopictus [1]", "value": 0.012, "unit": "ppb"}, {"measurement": "pupal mortality", "setting": "Ae. albopictus [2]; 24 h post exposure", "value": "96+1.7% and 96.7%"}, {"measurement": "emergence inhibition", "setting": "Ae. albopictus [2]; up to 8 h post exposure, one mosquito per 250 mL water", "value": 100, "unit": "%"}, {"measurement": "LC50", "setting": "Ae. albopictus [3]", "value": 0.012, "unit": "ppb"}, {"measurement": "average pupal mortality", "setting": "Ae. albopictus [4]; 6 containers per bay (100 m^3), 100 gravid females, 5 days", "value": "57.1+11.4% and 57.1%"}, {"measurement": "containers to which pyriproxyfen was transferred (contamination rate)", "setting": "Ae. albopictus [4]; 12 containers tested", "value": "91.7% and 91.6%"}, {"measurement": "pupal mortality of the cups with low mortality", "setting": "Ae. albopictus [4]; cups in area with human disturbance, low RH, less shade", "value": "0-30% and 10-30%"}, {"measurement": "inhibition of adult emergence", "setting": "[5]", "value": 100, "unit": "%"}, {"measurement": "containers contaminated with 100% mortality by one gravid female", "setting": "gravid female", "value": "at least 3 containers"}, {"measurement": "pupal mortality", "setting": "[6]; 31 m^3 room, previous (uniphase) station, 4 oviposition containers with 200 ml water", "value": 81, "unit": "%"}, {"measurement": "smallest reduction in adult emergence among ovicups", "setting": "[6]; 31.1 m^3 room", "value": 75, "unit": "%"}, {"measurement": "inhibition of adult emergence", "setting": "[6]; 31.1 m^3 room, 50 gravid females, 5 days, 4 ovicups, powder formulation", "value": "81.25%±2.39"}, {"measurement": "inhibition of emergence", "setting": "[7]", "value": "48.33±5.87", "unit": "%"}, {"measurement": "containers contaminated", "setting": "gravid mosquitoes; different field study, 2012, variable pupal mortality", "value": "more than 60%"}, {"measurement": "distance of pyriproxyfen transfer", "setting": "gravid mosquitoes; field study", "value": 200, "unit": "m"}, {"measurement": "pupal mortality", "setting": "gravid mosquitoes; field study, container with 250 ml water at 200 m", "value": 100, "unit": "%"}, {"measurement": "mortality", "setting": "container mosquitoes", "value": "40-70%"}, {"measurement": "emergence inhibition in each cup", "setting": "Ae. albopictus [8]; 31 m^3 room, 50 gravid females, 10 oviposition cups", "value": 100, "unit": "%"}, {"measurement": "pupal mortality in each of the 10 oviposition cups", "setting": "Ae. albopictus [8]; 31.1 m^3 room, 50 gravid mosquitoes, 5 days", "value": 100, "unit": "%"}, {"measurement": "pupal mortality in each of the 10 oviposition cups", "setting": "Ae. albopictus [8]; second prototype (oil and powder bands on one plate)", "value": 100, "unit": "%"}, {"measurement": "emergence inhibition", "setting": "Ae. aegypti adults", "value": "42-98%"}, {"measurement": "LC50", "setting": "Aedes aegypti; Aedes aegypti L.", "value": 0.023, "unit": "ppb"}, {"measurement": "LC50", "setting": "Aedes aegypti; reported as low as, Gaugler 2012, Sihuincha 2005", "value": 0.012, "unit": "ppb"}, {"measurement": "activity relative to temephos", "setting": "Aedes aegypti; times the activity of temephos", "value": 200, "unit": "×"}]}]}
